Reference: the NIST ThermoML archive (doi:10.1021/acs.jced.8b00524)

Experiment: xn = mol fraction of the nth substance listed
Conditions: 100 kPa, Liquid; for viscosity: Concentric cylinders viscometry; for mass density: Vibrating tube method

CCCCCCCCCO [nonan-1-ol] + CCCCOC(C)=O
Conditions | mass density [kg/m3] | viscosity [mPa·s]
293.15 K, x2 = 0 | 827.5 | 11.41
293.15 K, x2 = 0.0812 | 830.4 | 10.09
293.15 K, x2 = 0.1601 | 833.4 | 8.95
293.15 K, x2 = 0.2399 | 836.7 | 7.89
293.15 K, x2 = 0.3499 | 841.6 | 6.6
293.15 K, x2 = 0.4399 | 845.9 | 5.65
293.15 K, x2 = 0.5599 | 852.2 | 4.46
293.15 K, x2 = 0.6501 | 857.3 | 3.65
293.15 K, x2 = 0.7399 | 862.7 | 2.89
293.15 K, x2 = 0.8499 | 870 | 1.97
293.15 K, x2 = 0.9452 | 876.8 | 1.18
298.15 K, x2 = 0 | 824 | 9.43
298.15 K, x2 = 0.0812 | 826.7 | 8.31
298.15 K, x2 = 0.1601 | 829.6 | 7.35
298.15 K, x2 = 0.2399 | 832.8 | 6.49
298.15 K, x2 = 0.3499 | 837.4 | 5.4
298.15 K, x2 = 0.4399 | 841.6 | 4.62
298.15 K, x2 = 0.5599 | 847.7 | 3.64
298.15 K, x2 = 0.6501 | 852.7 | 2.99
298.15 K, x2 = 0.7399 | 858 | 2.37
298.15 K, x2 = 0.8499 | 865.1 | 1.65
298.15 K, x2 = 0.9452 | 871.8 | 1.03
303.15 K, x2 = 0 | 820.5 | 7.86
303.15 K, x2 = 0.0812 | 822.9 | 6.89
303.15 K, x2 = 0.1601 | 825.7 | 6.07
303.15 K, x2 = 0.2399 | 828.7 | 5.33
303.15 K, x2 = 0.3499 | 833.1 | 4.43
303.15 K, x2 = 0.4399 | 837.2 | 3.79
303.15 K, x2 = 0.5599 | 843.1 | 3
303.15 K, x2 = 0.6501 | 847.9 | 2.46
303.15 K, x2 = 0.7399 | 853 | 1.97
303.15 K, x2 = 0.8499 | 860 | 1.4
303.15 K, x2 = 0.9452 | 866.5 | 0.91
308.15 K, x2 = 0 | 817.1 | 6.61
308.15 K, x2 = 0.0812 | 819.4 | 5.78
308.15 K, x2 = 0.1601 | 821.9 | 5.08
308.15 K, x2 = 0.2399 | 824.7 | 4.44
308.15 K, x2 = 0.3499 | 828.9 | 3.68
308.15 K, x2 = 0.4399 | 832.8 | 3.14
308.15 K, x2 = 0.5599 | 838.4 | 2.49
308.15 K, x2 = 0.6501 | 843.1 | 2.07
308.15 K, x2 = 0.7399 | 848.1 | 1.67
308.15 K, x2 = 0.8499 | 854.9 | 1.21
308.15 K, x2 = 0.9452 | 861.4 | 0.81
313.15 K, x2 = 0 | 813.6 | 5.59
313.15 K, x2 = 0.0812 | 815.5 | 4.87
313.15 K, x2 = 0.1601 | 817.7 | 4.26
313.15 K, x2 = 0.2399 | 820.2 | 3.72
313.15 K, x2 = 0.3499 | 824.2 | 3.08
313.15 K, x2 = 0.4399 | 827.8 | 2.63
313.15 K, x2 = 0.5599 | 833.2 | 2.11
313.15 K, x2 = 0.6501 | 837.8 | 1.77
313.15 K, x2 = 0.7399 | 842.8 | 1.45
313.15 K, x2 = 0.8499 | 849.5 | 1.07
313.15 K, x2 = 0.9452 | 856 | 0.74
318.15 K, x2 = 0 | 810.1 | 4.78
318.15 K, x2 = 0.0812 | 811.8 | 4.15
318.15 K, x2 = 0.1601 | 813.8 | 3.62
318.15 K, x2 = 0.2399 | 816.1 | 3.16
318.15 K, x2 = 0.3499 | 819.7 | 2.61
318.15 K, x2 = 0.4399 | 823 | 2.24
318.15 K, x2 = 0.5599 | 828.3 | 1.8
318.15 K, x2 = 0.6501 | 832.7 | 1.5
318.15 K, x2 = 0.7399 | 837.5 | 1.24
318.15 K, x2 = 0.8499 | 844.3 | 0.93
318.15 K, x2 = 0.9452 | 850.8 | 0.67
323.15 K, x2 = 0 | 806.5 | 4.1
323.15 K, x2 = 0.0812 | 807.9 | 3.56
323.15 K, x2 = 0.1601 | 809.7 | 3.11
323.15 K, x2 = 0.2399 | 811.8 | 2.71
323.15 K, x2 = 0.3499 | 815.2 | 2.24
323.15 K, x2 = 0.4399 | 818.4 | 1.91
323.15 K, x2 = 0.5599 | 823.5 | 1.54
323.15 K, x2 = 0.6501 | 827.8 | 1.29
323.15 K, x2 = 0.7399 | 832.6 | 1.08
323.15 K, x2 = 0.8499 | 839.1 | 0.83
323.15 K, x2 = 0.9452 | 845.6 | 0.61
